Reference: EPA's ToxValDB 9.5 (doi:10.2903/j.efsa.2006.88r)
≈ marks a conversion by molar mass, not a printed value.

Key:
Tagia sp. = conditions: mortality
Canidae = conditions: subchronic; oral; Dog Other; histopathology: nonneoplastic
Daphnia magna = conditions: chronic/long-term; duration: 21 days; reproduction
[1] = acute; oral; unspecified; mortality
Oryctolagus sp. = conditions: subchronic; oral; histopathology: nonneoplastic
Apis mellifera = conditions: acute; duration: 48 hours; oral; unspecified; mortality

CSc1nnc(C(C)(C)C)c(=O)n1N [Metribuzin]
LC50 (Tagia sp.; acute, duration: 14 days): 427 mg/kg | NOEC (Tagia sp.; chronic/long-term, duration: 8 weeks): 5250 g/ha | NOAEL (Canidae): 2 mg/kg-day | NOEC (Daphnia magna): 0.32 mg/L | LC50 (Oncorhynchus mykiss; acute, duration: 96 hours, mortality): 74.6 µg/mL (≈ 348 µM) | NOEC (Oncorhynchus mykiss; chronic/long-term, duration: 95 days, growth): 4.4 mg/L | LD50 [1]: 322 mg/kg | NOAEL (Rattus norvegicus; acute, clinical signs): > 2 mg/kg-day | NOAEL (Rattus norvegicus; chronic, duration: 2 years): 1.3 mg/kg-day | NOAEL (Rattus norvegicus; reproduction developmental, body weight): 2.2 mg/kg-day | NOAEL (Rattus norvegicus; subchronic, oral, histopathology: nonneoplastic): 2 mg/kg-day | LD50 (Bird; acute, oral, unspecified, mortality): 164 mg/kg | NOEC (Bird; reproductive): 28.3 mg/kg-day | LC50 (Bird; short-term, oral, feed, mortality): > 359 mg/kg-day | NOAEL (Oryctolagus sp.): 2 mg/kg-day | LD50 (Apis mellifera): 166 µg/piece
